Test results taken from the supplement of paper PMC10307832.

What was measured:
Experiment in all cases: relative viability (nuclei count vs DMSO), 5 days (fraction); higher = more cells survive
201T = test system: 201T
Outline: (§1)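 Relative viability equals treated-well nuclei counts divided by vehicle-well nuclei counts. Counts came from 4× images of lung cancer cell lines grown in 1536-well plates for 5 days after pin-tool dosing on the day after seeding. Dosing used one drug alone or a fixed anchor-drug dose plus five library-drug doses (not always all listed) in √10 steps, and values are medians of duplicate plates.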

A-427 = test system: A-427
Outline: as §1

BEN = test system: BEN
Outline: as §1

COR-L23 = test system: COR-L23
Outline: as §1

EKVX = test system: EKVX
Outline: as §1

HARA = test system: HARA
Outline: as §1

HCC-15 = test system: HCC-15
Outline: as §1

HCC-44 = test system: HCC-44
Outline: as §1

HCC-827 = test system: HCC-827
Outline: as §1

NCI-H1437 = test system: NCI-H1437
Outline: as §1

NCI-H1650 = test system: NCI-H1650
Outline: as §1

NCI-H1666 = test system: NCI-H1666
Outline: as §1

NCI-H1792 = test system: NCI-H1792
Outline: as §1

NCI-H1975 = test system: NCI-H1975
Outline: as §1

NCI-H2342 = test system: NCI-H2342
Outline: as §1

NCI-H23 = test system: NCI-H23
Outline: as §1

NCI-H358 = test system: NCI-H358
Outline: as §1

NCI-H441 = test system: NCI-H441
Outline: as §1

NCI-H596 = test system: NCI-H596
Outline: as §1

NCI-H650 = test system: NCI-H650
Outline: as §1

NCI-H838 = test system: NCI-H838
Outline: as §1

SK-MES-1 = test system: SK-MES-1
Outline: as §1

SW 900 = test system: SW 900
Outline: as §1

COc1nc(C)cnc1NS(=O)(=O)c1cccnc1-c1ccc(-c2nnco2)cc1 [Zibotentan] + COc1cccc2cc(-c3nc([C@H]4CC[C@H](C(=O)O)CC4)n4ncnc(N)c34)[nH]c12 [OSI-027] (partner 0.5 µM)
relative viability (201T; first compound 0.08 µM): 0.819
relative viability (201T; first compound 0.253 µM): 0.699
relative viability (201T; first compound 0.8 µM): 0.679
relative viability (201T; first compound 2.53 µM): 0.755
relative viability (A-427; first compound 0.08 µM): 0.54
relative viability (A-427; first compound 0.253 µM): 0.425
relative viability (A-427; first compound 0.8 µM): 0.501
relative viability (A-427; first compound 2.53 µM): 0.579
relative viability (BEN; first compound 0.08 µM): 0.301
relative viability (BEN; first compound 0.253 µM): 0.286
relative viability (BEN; first compound 0.8 µM): 0.27
relative viability (BEN; first compound 2.53 µM): 0.261
relative viability (COR-L23; first compound 0.08 µM): 0.713
relative viability (COR-L23; first compound 0.253 µM): 0.651
relative viability (COR-L23; first compound 0.8 µM): 0.789
relative viability (COR-L23; first compound 2.53 µM): 0.798
relative viability (EKVX; first compound 0.08 µM): 0.715
relative viability (EKVX; first compound 0.253 µM): 0.706
relative viability (EKVX; first compound 0.8 µM): 0.695
relative viability (EKVX; first compound 2.53 µM): 0.77
relative viability (HARA; first compound 0.08 µM): 0.42
relative viability (HARA; first compound 0.253 µM): 0.462
relative viability (HARA; first compound 0.8 µM): 0.437
relative viability (HARA; first compound 2.53 µM): 0.715
relative viability (HCC-15; first compound 0.08 µM): 0.644
relative viability (HCC-15; first compound 0.8 µM): 0.759
relative viability (HCC-15; first compound 2.53 µM): 0.781
relative viability (HCC-44; first compound 0.08 µM): 0.585
relative viability (HCC-44; first compound 0.8 µM): 0.621
relative viability (HCC-44; first compound 2.53 µM): 0.558
relative viability (HCC-827; first compound 0.08 µM): 0.826
relative viability (HCC-827; first compound 0.253 µM): 0.836
relative viability (HCC-827; first compound 0.8 µM): 0.754
relative viability (HCC-827; first compound 2.53 µM): 0.767
relative viability (NCI-H1437; first compound 0.08 µM): 0.845
relative viability (NCI-H1437; first compound 0.253 µM): 0.84
relative viability (NCI-H1437; first compound 0.8 µM): 0.855
relative viability (NCI-H1437; first compound 2.53 µM): 0.919
relative viability (NCI-H1650; first compound 0.08 µM): 0.579
relative viability (NCI-H1650; first compound 0.8 µM): 0.644
relative viability (NCI-H1650; first compound 2.53 µM): 0.716
relative viability (NCI-H1666; first compound 0.08 µM): 0.929
relative viability (NCI-H1666; first compound 0.253 µM): 0.751
relative viability (NCI-H1666; first compound 0.8 µM): 0.814
relative viability (NCI-H1666; first compound 2.53 µM): 0.877
relative viability (NCI-H1792; first compound 0.08 µM): 0.803
relative viability (NCI-H1792; first compound 0.253 µM): 0.583
relative viability (NCI-H1792; first compound 0.8 µM): 0.563
relative viability (NCI-H1792; first compound 2.53 µM): 0.751
relative viability (NCI-H1975; first compound 0.08 µM): 0.783
relative viability (NCI-H1975; first compound 0.253 µM): 0.696
relative viability (NCI-H1975; first compound 0.8 µM): 0.566
relative viability (NCI-H1975; first compound 2.53 µM): 0.661
relative viability (NCI-H2342; first compound 0.08 µM): 0.621
relative viability (NCI-H2342; first compound 0.253 µM): 0.559
relative viability (NCI-H2342; first compound 0.8 µM): 0.576
relative viability (NCI-H2342; first compound 2.53 µM): 0.758
relative viability (NCI-H23; first compound 0.08 µM): 0.63
relative viability (NCI-H23; first compound 0.253 µM): 0.619
relative viability (NCI-H23; first compound 0.8 µM): 0.389
relative viability (NCI-H23; first compound 2.53 µM): 0.743
relative viability (NCI-H358; first compound 0.08 µM): 0.833
relative viability (NCI-H358; first compound 0.253 µM): 0.531
relative viability (NCI-H358; first compound 0.8 µM): 0.725
relative viability (NCI-H358; first compound 2.53 µM): 0.824
relative viability (NCI-H441; first compound 0.08 µM): 0.823
relative viability (NCI-H441; first compound 0.253 µM): 0.404
relative viability (NCI-H441; first compound 0.8 µM): 0.818
relative viability (NCI-H441; first compound 2.53 µM): 0.752
relative viability (NCI-H596; first compound 0.08 µM): 0.776
relative viability (NCI-H596; first compound 0.253 µM): 0.643
relative viability (NCI-H596; first compound 0.8 µM): 0.52
relative viability (NCI-H596; first compound 2.53 µM): 0.717
relative viability (NCI-H650; first compound 0.08 µM): 0.54
relative viability (NCI-H650; first compound 0.253 µM): 0.509
relative viability (NCI-H650; first compound 0.8 µM): 0.566
relative viability (NCI-H650; first compound 2.53 µM): 0.649
relative viability (NCI-H838; first compound 0.08 µM): 0.349
relative viability (NCI-H838; first compound 0.253 µM): 0.366
relative viability (NCI-H838; first compound 0.8 µM): 0.393
relative viability (NCI-H838; first compound 2.53 µM): 0.389
relative viability (SK-MES-1; first compound 0.08 µM): 0.595
relative viability (SK-MES-1; first compound 0.253 µM): 0.228
relative viability (SK-MES-1; first compound 0.8 µM): 0.555
relative viability (SK-MES-1; first compound 2.53 µM): 0.702
relative viability (SW 900; first compound 0.08 µM): 0.623
relative viability (SW 900; first compound 0.253 µM): 0.607
relative viability (SW 900; first compound 0.8 µM): 0.528
relative viability (SW 900; first compound 2.53 µM): 0.496
